Data reported in PMC11233931, “Remodeling tumor‐associated macrophage for anti‐cancer effects by rational design of irreversible inhibition of mitogen‐activated protein kinase‐activated protein kinase 2” (MedComm, 2024).

What was measured:
Experiment in all cases: Eurofins kinase selectivity profile against 380 other human recombinant kinases (Table S2)
Assay type in all cases: biochemical
[1] = target: T1, 380 human recombinant protein kinases (Homo sapiens, UniProt P42336, E542K); conditions: PI3 Kinase (p110α(E542K)/p85α)(h), read-out: Inhibition rate (%)
T1 construct: purchased Eurofins (Celle Lévescault)
Procedure, shortened: (§1)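 Selectivity panel of 380 human recombinant protein kinases, screened by Eurofins at a range of concentrations.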

[2] = target: T2, 380 human recombinant protein kinases (Homo sapiens, UniProt Q16513); conditions: PRK2(h), read-out: Inhibition rate
T2 construct: purchased Eurofins (Celle Lévescault)
Procedure, shortened: as §1

[3] = target: T3, 380 human recombinant protein kinases (Homo sapiens, UniProt O95835); conditions: LATS1(h), read-out: Inhibition rate
T3 construct: purchased Eurofins (Celle Lévescault)
T3 sequence (O95835 1-1130): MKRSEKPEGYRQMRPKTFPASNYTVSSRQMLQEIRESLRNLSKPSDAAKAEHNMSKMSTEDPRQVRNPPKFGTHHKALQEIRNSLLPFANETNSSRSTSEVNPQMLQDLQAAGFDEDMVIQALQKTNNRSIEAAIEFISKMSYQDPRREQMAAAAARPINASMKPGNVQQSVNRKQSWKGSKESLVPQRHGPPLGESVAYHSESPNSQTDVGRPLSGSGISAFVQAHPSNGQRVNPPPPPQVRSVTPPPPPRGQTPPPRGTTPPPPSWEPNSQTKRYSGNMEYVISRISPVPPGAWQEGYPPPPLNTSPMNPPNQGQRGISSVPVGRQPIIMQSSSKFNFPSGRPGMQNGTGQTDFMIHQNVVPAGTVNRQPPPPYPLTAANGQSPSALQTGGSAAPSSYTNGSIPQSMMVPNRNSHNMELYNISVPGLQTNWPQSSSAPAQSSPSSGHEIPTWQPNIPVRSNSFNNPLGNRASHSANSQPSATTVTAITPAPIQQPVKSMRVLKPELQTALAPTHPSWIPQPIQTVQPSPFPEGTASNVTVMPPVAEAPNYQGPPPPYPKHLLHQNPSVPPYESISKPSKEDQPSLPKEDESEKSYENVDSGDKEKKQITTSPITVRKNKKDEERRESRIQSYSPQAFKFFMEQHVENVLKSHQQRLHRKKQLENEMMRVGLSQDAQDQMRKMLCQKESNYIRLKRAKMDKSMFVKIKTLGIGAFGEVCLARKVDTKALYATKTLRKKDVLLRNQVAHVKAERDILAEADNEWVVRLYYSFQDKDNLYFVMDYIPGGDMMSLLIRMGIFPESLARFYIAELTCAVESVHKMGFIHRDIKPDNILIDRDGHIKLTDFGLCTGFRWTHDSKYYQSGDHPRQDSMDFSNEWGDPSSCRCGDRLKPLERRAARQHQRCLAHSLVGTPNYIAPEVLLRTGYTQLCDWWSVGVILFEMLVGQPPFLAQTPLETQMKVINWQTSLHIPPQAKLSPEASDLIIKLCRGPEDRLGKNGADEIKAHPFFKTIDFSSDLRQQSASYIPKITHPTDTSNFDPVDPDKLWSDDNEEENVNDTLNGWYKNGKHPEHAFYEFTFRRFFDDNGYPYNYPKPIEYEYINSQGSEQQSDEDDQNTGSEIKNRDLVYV
Procedure, shortened: as §1

[4] = target: T4, 380 human recombinant protein kinases (Homo sapiens, UniProt O14578); conditions: CRIK(h), read-out: Inhibition rate
T4 construct: purchased Eurofins (Celle Lévescault)
Procedure, shortened: as §1

[5] = target: T5, 380 human recombinant protein kinases (Homo sapiens, UniProt Q8TF76); conditions: Haspin(h), read-out: Inhibition rate
T5 construct: purchased Eurofins (Celle Lévescault)
T5 sequence (Q8TF76 1-798): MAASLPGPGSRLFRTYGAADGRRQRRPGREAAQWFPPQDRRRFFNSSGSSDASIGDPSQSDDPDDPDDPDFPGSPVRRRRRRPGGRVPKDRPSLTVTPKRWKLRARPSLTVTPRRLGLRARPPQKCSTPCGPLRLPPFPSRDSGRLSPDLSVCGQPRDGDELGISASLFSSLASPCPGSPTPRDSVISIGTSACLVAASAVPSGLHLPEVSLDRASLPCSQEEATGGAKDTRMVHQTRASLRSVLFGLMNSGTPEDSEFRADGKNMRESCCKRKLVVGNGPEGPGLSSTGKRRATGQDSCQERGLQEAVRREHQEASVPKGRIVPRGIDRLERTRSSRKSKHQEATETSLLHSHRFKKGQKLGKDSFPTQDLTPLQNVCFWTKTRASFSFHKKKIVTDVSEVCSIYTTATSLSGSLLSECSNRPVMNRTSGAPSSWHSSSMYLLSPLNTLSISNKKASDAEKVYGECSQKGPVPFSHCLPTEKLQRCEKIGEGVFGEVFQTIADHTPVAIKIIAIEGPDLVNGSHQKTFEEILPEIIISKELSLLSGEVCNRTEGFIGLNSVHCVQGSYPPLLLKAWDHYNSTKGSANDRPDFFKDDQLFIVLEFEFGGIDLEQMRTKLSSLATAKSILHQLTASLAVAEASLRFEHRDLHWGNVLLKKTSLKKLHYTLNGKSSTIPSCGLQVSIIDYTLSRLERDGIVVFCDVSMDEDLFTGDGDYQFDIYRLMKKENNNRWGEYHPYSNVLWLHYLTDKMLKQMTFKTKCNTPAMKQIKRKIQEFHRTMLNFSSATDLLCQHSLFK
Procedure, shortened: as §1

[6] = target: T6, 380 human recombinant protein kinases (Homo sapiens, UniProt O96013); conditions: PAK4(h), read-out: Inhibition rate
T6 construct: purchased Eurofins (Celle Lévescault)
Procedure, shortened: as §1

T2 sequence (Q16513 whole entry): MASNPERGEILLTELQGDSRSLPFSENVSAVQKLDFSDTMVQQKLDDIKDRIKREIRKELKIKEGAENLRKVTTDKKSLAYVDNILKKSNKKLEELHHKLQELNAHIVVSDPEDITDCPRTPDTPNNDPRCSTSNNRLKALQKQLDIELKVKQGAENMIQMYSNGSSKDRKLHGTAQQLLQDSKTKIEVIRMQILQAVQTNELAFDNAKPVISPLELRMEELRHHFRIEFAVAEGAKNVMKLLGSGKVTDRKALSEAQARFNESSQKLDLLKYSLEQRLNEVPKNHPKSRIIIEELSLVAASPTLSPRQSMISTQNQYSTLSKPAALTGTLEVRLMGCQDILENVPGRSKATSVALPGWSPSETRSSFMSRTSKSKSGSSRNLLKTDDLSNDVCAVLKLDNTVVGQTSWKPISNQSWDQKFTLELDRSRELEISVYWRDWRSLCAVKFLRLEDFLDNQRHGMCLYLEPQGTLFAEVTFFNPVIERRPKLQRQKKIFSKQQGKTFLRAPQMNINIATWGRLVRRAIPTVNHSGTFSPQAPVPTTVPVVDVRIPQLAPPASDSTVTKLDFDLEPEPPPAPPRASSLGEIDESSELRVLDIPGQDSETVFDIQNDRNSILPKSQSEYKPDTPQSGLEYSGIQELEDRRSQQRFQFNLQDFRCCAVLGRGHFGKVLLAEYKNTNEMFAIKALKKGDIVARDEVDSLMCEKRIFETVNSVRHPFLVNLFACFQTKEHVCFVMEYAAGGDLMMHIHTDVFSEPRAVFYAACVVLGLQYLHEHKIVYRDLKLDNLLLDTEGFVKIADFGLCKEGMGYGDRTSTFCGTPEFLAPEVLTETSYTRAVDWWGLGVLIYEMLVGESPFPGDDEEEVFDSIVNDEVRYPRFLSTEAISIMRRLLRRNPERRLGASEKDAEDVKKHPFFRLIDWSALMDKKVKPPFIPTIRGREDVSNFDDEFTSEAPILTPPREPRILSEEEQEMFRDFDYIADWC
T4 sequence (O14578 whole entry): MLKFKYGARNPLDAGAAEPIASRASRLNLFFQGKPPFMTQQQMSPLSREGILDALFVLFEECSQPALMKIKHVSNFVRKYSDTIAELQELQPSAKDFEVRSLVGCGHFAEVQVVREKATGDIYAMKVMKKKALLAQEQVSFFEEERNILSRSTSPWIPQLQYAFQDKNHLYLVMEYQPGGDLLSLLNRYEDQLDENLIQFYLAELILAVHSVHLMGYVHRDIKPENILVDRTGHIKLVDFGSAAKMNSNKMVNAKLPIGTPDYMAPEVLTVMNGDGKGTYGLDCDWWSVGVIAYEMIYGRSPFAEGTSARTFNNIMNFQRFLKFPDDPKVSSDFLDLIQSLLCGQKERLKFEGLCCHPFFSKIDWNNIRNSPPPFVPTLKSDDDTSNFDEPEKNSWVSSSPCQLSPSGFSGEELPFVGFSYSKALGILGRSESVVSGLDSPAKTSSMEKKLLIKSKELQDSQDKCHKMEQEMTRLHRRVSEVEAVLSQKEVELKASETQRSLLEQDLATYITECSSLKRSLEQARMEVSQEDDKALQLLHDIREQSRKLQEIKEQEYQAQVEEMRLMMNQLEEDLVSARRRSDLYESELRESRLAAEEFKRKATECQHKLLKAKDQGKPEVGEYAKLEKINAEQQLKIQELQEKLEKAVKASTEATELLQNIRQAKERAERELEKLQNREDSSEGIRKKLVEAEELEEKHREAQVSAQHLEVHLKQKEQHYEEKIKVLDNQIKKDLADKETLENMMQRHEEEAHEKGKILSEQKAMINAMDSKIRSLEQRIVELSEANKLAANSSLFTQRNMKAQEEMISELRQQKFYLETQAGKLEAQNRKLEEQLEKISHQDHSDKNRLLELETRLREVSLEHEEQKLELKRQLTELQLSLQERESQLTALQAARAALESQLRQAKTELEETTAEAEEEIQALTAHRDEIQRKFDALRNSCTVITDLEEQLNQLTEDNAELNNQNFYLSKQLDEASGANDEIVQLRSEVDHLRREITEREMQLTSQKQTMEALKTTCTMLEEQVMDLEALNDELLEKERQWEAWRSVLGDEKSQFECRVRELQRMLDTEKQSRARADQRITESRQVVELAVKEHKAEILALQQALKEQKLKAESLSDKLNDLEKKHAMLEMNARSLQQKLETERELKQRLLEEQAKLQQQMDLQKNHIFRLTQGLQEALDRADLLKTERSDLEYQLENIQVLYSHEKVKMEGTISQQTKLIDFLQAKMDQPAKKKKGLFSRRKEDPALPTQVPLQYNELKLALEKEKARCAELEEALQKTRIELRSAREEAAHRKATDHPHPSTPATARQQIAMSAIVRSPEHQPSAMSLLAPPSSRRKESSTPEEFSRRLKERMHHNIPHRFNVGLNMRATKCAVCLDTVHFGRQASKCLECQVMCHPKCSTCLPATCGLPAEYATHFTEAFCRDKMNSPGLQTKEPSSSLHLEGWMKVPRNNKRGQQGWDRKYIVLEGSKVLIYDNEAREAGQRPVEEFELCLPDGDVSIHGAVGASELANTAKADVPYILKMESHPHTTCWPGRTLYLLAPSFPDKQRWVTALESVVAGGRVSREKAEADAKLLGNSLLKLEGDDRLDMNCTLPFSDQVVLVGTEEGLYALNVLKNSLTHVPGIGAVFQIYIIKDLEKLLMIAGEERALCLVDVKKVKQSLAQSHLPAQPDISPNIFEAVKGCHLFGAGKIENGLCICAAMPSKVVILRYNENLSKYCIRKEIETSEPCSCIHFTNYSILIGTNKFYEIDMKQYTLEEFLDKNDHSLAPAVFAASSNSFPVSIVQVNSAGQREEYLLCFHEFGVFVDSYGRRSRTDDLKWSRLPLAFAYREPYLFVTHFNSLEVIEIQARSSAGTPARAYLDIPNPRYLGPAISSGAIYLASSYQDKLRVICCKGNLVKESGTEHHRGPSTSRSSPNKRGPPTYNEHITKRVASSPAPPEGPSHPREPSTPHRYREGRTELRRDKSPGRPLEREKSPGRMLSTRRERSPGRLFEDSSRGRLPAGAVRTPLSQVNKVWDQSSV
T1 sequence (P42336 whole entry E542K): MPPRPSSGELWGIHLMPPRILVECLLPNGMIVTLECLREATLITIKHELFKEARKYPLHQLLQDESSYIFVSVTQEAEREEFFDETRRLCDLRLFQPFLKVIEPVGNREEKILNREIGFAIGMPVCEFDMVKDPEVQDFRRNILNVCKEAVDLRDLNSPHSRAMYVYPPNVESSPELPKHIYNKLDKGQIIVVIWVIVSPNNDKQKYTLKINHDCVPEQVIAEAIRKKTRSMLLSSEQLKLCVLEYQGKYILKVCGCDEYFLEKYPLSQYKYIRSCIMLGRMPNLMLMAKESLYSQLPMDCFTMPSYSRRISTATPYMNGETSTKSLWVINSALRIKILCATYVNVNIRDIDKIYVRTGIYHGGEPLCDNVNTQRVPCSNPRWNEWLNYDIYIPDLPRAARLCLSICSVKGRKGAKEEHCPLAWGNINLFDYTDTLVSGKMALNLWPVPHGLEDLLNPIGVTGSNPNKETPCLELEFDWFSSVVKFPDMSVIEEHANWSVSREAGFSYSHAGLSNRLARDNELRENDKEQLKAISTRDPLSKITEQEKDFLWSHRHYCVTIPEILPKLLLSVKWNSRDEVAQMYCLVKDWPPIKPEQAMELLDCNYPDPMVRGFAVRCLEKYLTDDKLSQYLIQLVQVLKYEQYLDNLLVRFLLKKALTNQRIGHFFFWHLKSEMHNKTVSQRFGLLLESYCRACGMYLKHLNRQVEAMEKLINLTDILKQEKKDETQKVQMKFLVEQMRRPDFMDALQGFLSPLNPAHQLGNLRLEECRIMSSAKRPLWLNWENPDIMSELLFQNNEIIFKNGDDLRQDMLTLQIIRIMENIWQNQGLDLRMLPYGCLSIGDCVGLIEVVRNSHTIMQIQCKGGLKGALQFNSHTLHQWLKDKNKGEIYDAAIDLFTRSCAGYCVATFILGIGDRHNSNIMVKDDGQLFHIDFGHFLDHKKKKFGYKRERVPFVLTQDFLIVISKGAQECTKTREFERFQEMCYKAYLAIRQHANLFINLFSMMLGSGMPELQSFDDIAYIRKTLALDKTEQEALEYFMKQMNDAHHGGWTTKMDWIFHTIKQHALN
T6 sequence (O96013 whole entry): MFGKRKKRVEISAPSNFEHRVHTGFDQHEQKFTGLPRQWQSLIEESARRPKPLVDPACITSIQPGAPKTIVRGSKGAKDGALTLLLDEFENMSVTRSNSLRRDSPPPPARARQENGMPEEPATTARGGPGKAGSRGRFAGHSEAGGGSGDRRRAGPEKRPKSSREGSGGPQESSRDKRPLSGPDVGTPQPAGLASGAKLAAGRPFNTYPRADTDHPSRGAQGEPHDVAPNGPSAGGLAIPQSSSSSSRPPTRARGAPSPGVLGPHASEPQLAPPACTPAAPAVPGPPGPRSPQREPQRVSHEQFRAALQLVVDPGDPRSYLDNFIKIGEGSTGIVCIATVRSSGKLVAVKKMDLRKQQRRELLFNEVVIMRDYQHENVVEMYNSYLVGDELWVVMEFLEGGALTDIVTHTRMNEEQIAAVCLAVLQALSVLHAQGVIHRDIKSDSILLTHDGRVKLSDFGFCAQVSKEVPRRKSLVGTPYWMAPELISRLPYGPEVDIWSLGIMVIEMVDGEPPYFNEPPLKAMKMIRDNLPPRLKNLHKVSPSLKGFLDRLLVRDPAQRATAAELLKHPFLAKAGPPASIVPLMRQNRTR

`C=CC(=O)Nc1cc(-c2cc(-c3cc4c([nH]3)CCNC4=O)ccn2)ccc1OC(F)(F)F` [compound 11] was tested, and the inhibition at 0.01 µM ([1]; 10 nM) was -3%, the inhibition at 0.1 µM ([1]; 100 nM) was -2% and the inhibition at 1 µM ([1]; 1000 nM) was -2%. The inhibition at 0.01 µM ([2]; 10 nM) was -2%, the inhibition at 0.1 µM ([2]; 100 nM) was 3% and the inhibition at 1 µM ([2]; 1000 nM) was 5%. It also gave an inhibition at 0.01 µM ([3]; 10 nM) of -11%, an inhibition at 0.1 µM ([3]; 100 nM) of -3% and an inhibition at 1 µM ([3]; 1000 nM) of 1%. For the same compound, the inhibition at 0.01 µM ([4]; 10 nM) was -8%, the inhibition at 0.1 µM ([4]; 100 nM) was 6% and the inhibition at 1 µM ([4]; 1000 nM) was 29%. The inhibition at 0.01 µM ([5]; 10 nM) was 1%, the inhibition at 0.1 µM ([5]; 100 nM) was 11% and the inhibition at 1 µM ([5]; 1000 nM) was 46%. It also gave an inhibition at 0.01 µM ([6]; 10 nM) of 2%, an inhibition at 0.1 µM ([6]; 100 nM) of -2% and an inhibition at 1 µM ([6]; 1000 nM) of 2%.
